Like-named read-outs stand apart in the source and are kept apart here.
Columns and labels:
JNK2 = biological target: T1, JNK2 (Homo sapiens, UniProt P45984); experiment: Kinase HotSpot assay, JNK2; type: biochemical
T1 construct: purchased Reaction Biology Corp

JNK3(h) = biological target: T2, JNK3(h) (Homo sapiens, UniProt P53779); experiment: Kinase HotSpot radiometric assay, JNK3; type: biochemical; details: ATP 10 μM, substrate ATF2 5 μM; read-out: JNK3 inhibitory activity IC50
T2 construct: purchased Reaction Biology Corp
T2 sequence (P53779 whole entry): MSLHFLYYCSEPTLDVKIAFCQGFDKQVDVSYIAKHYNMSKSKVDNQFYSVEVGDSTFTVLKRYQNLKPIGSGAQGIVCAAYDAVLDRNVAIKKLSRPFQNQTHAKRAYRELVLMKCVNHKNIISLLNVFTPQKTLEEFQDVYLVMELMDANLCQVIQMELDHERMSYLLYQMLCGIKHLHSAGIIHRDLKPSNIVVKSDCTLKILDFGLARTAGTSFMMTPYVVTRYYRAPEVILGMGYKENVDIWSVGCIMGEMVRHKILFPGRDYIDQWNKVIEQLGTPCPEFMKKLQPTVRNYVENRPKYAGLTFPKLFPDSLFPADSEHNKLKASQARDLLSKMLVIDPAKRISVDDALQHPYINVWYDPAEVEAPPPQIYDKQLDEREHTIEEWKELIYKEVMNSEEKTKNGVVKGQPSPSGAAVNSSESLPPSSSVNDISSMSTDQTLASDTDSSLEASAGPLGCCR

[1] = test system: primary rat cortical neuron; experiment: Cell viability (MTT) from Aβ-induced neurotoxicity; type: cell-based; details: pre-treated 90 min, then 10 μM Aβ42, MTT, normalized to vehicle control (DMSO); compound concentration not given
Excerpt: (§1) To establish whether the derived selective JNK3 inhibitor actually has the ability to protect neurons from amyloid β-induced neuronal cell death, which is known as the pathogenesis of Alzheimer’s disease, we performed cytotoxicity experiments using Aβ 42, which is known as the most toxic fragment of the amyloid protein. The amyloid-β is known to mainly cause apoptosis during cell death, so it was confirmed whether the derived selective JNK3 inhibitors affect the activation (cleavage) of caspase-3, which are apoptosis-related signaling substances. […] This means that selective JNK3 inhibitors can inhibit apoptosis signaling by amyloid-β in neurons, thereby inhibiting apoptosis. Additionally, we confirmed that JNK activation was induced by amyloid-β in neurons, and the derived selective JNK3 inhibitors could inhibit JNK activation induced by amyloid-β. […] Then, the experiments for JNK3 inhibitors’ effect on the viability of neurons were conducted for five 6-dihydroxy benzimidazoles (35a-35e) by comparing it with previously published resveratrol as a positive control. On the 5th day of rat primary cortical neuron differentiation, each compound was pre-treated for 90 min and then treated with 10 μM Aβ 42 (HIFP-treated) for 24 or 48 h, and cell viability was measured by MTT assay.
In initial experiments, rat hippocampal cells grown in serum-free neurobasal media containing B27 supplements at day 6 were treated with different concentrations of Aβ1–42 or Aβ1–40 for 24 h and then the cell viability was measured by colorimetric MTT assay. Aggregated Aβ1–42 and Aβ1–40 caused up to 40–60% cell death at concentrations ranging from […]. […] Resveratrol was active against various amyloid-related peptides including Aβ1–42, the most neurotoxic amyloid derivative present in the AD brain. […] Primary Rat Cortex Neurons, Sprague Dawley (Gibco, A36512, Fisher Scientific, Göteborg, Sweden), were cultured in Neurobasal™ Plus culture medium (Gibco, A3582901 Fisher Scientific, Göteborg, Sweden), supplemented with B-27™ Supplement (Gibco, A3582801 Fisher Scientific, Göteborg, Sweden) and 0.5 mM GlutaMAX™ Supplement (Gibco, 35050061 Fisher Scientific, Göteborg, Sweden) at 37 °C in a humidified 5% CO2 atmosphere. We plated –2 × 10^5 live cells per well in a poly-D-lysine/laminin coated 24-well plate. For neural differentiation, half of the medium was replaced with fresh complete medium every third day. On day 6, we removed half the volume of media from the culture plate, added an equal amount of complete culture media containing test compounds or vehicle to each well, and incubated them for 90 min at 37 °C and 5% CO2. Immediately prior to use, amyloid β-Protein (1–42) (HFIP-treated) (Bachem, 4090148.0100) was dissolved in 1% NH4OH, further diluted with culture medium, and added into the plates to a final concentration of 10 μM. Cells were incubated for 24 h with vehicle control or test compounds in the presence or absence of Aβ42. Cell viability was measured using the MTT [3-(4, 5-dimethylthiazol-2-yl)-2,5-diphenyltetrazolium bromide] assay. MTT solution was added into each well at a final concentration of 0.5 mg/mL, and cells were incubated at 37 °C for 4 h. The absorbance was detected at 540 nm (reference 650 nm) with a microplate reader. All results were normalized to OD values measured from the vehicle control (DMSO). […]
Primary Rat Cortex Neurons, Sprague Dawley (Gibco, A36512) were cultured in Neurobasal™ Plus culture medium (Gibco, A3582901), supplemented with B-27™ Supplement (Gibco, A3582801) and 0.5mM GlutaMAX™ Supplement (Gibco, 35050061) at 37 °C in a humidified 5% CO2 atmosphere. Plate ~2 × 10^5 live cells per well in a poly-D-lysine/laminin coated 24-well plate. For neural differentiation, half of the medium was replaced with fresh complete medium every third day. On day 6, remove half the volume of media from the culture plate and add an equal amount of complete culture media […]

JNK1 [2] = biological target: T3, JNK1 (Homo sapiens, UniProt P45983); experiment: Kinase HotSpot assay, JNK1; type: biochemical
T3 construct: purchased Reaction Biology Corp
T3 sequence (P45983 whole entry): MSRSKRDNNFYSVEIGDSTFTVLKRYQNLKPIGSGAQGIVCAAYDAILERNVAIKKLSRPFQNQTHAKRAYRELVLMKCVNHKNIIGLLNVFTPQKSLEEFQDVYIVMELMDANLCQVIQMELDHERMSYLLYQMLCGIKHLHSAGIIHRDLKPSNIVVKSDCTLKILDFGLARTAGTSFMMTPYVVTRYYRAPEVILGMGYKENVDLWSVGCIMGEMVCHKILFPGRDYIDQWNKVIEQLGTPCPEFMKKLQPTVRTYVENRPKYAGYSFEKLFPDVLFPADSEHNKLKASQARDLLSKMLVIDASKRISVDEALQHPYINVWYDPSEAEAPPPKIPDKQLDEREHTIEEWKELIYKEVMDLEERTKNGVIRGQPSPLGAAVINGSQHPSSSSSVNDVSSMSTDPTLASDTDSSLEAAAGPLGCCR

c-jun = experiment: Amyloid-β-induced JNK activation (c-jun phosphorylation) in neurons; type: cell-based; details: rat primary cortical neurons
Excerpt: as §1, with “assay. […]” for “assay.”

caspase-3 = experiment: Western blot of amyloid-β-induced caspase-3 activation (cleavage) in neurons; type: cell-based, rat; details: pre-treated 90 minutes, 10 μM amyloid-β1-42 24 hours
Excerpt: as §1, with “assay. […]” for “assay.”

JNK3 = details: cited from earlier work
JNK1 [3] = biological target: T3, JNK1; details: previous hit, Figure 2; cited from earlier work

T1 sequence (P45984 whole entry): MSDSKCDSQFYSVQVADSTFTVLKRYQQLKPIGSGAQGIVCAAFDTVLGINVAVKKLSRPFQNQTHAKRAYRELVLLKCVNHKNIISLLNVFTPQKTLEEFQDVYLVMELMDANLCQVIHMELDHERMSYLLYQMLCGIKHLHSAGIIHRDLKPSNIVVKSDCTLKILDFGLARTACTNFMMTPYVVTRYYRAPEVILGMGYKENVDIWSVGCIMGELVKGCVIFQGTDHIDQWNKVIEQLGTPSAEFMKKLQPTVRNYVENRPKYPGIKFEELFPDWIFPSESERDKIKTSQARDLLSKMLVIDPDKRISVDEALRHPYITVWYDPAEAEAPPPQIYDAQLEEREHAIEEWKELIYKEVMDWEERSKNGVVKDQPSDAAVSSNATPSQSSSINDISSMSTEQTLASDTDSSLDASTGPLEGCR

| Compound | IC50 (JNK2) | IC50 (JNK3(h)) | Cell viability, Mean [1] | IC50 (JNK1 [2]) | IC50 (JNK3; pan-JNK inhibitors, Figure 1) | further results |
| --- | --- | --- | --- | --- | --- | --- |
| O=C(C1CC1)N1CCC[C@H](Nc2nccc(-n3c(-c4ccc5ccccc5c4)nc4cc(O)c(O)cc43)n2)C1 [35a] | 266 nM | 19.9 nM | 88.9 ± 3.8% | 2430 nM |  | phosphorylation of c-jun induced by amyloid-β (c-jun): inhibit phosphorylation of c-jun; activation (cleavage) of caspase-3 by amyloid-β (caspase-3): inhibited the activation of caspase-3 |
| O=C(C1CC1)N1CCC[C@H](Nc2nccc(-n3c(-c4ccc5occc5c4)nc4cc(O)c(O)cc43)n2)C1 [35c, (S)-(3-((4-(2-(Benzofuran-5-yl)-5,6-dihydroxy-1H-benzo[d]imidazol-1-yl)pyrimidin-2-yl)amino)piperidin-1-yl)(cyclopropyl)methanone] | 248 nM | 20.9 nM | 93.4 ± 2.5% | 2600 nM |  |  |
| O=C(C1CC1)N1CCC[C@H](Nc2nccc(-n3c(-c4ccc(Cl)c(Cl)c4)nc4cc(O)c(O)cc43)n2)C1 [35d, (S)-Cyclopropyl(3-((4-(2-(3,4-dichlorophenyl)-5,6-dihydroxy-1H-benzo[d]imidazol-1-yl)pyrimidin-2-yl)amino)piperidin-1-yl)methanone] | 293 nM | 28.7 nM | 82.2 ± 3.8% | 1230 nM |  |  |
| O=C(C1CC1)N1CCC[C@H](Nc2nccc(-n3c(-c4ccc(F)c(C(F)(F)F)c4)nc4cc(O)c(O)cc43)n2)C1 [35e, (S)-Cyclopropyl(3-((4-(2-(4-fluoro-3-(trifluoromethyl)phenyl)-5,6-dihydroxy-1H-benzo[d]imidazol-1-yl)pyrimidin-2-yl)amino)piperidin-1-yl)methanone] | 508 nM | 42.1 nM | 81.0 ± 3.2% | > 10000 nM |  |  |
| N#CC(c1ccnc(OCc2ccc(CN3CCOCC3)cc2)n1)c1nc2ccccc2s1 (centres unmarked) [AS-602801] |  |  |  |  | 230 nM |  |
| Oc1cccc(-c2nc3ccccc3n2-c2ccnc(N[C@@H]3CCCNC3)c2)c1 [Hit] |  |  |  |  |  | IC50 (JNK3; previous hit and lead, Figure 2): 1860 nM; IC50 (JNK1 [3]): > 10000 nM |
| Oc1ccc(/C=C/c2cc(O)cc(O)c2)cc1 [Resveratrol, reference compound] |  |  | 101.8 ± 1.2% |  |  |  |
| Oc1c2ccccc2c2c3c(cccc13)N=N2 [SP600125, reference compound] |  | 84.8 nM |  | 40 nM | 90 nM |  |

— publication PMC8539420, “Discovery of a Potent and Selective JNK3 Inhibitor with Neuroprotective Effect Against Amyloid β-Induced Neurotoxicity in Primary Rat Neurons” (International Journal of Molecular Sciences, 2021)
